Molecular target: T1, Aβ42 (Homo sapiens, UniProt P05067)
T1 construct: made in house; host or cells: E. coli BL21 Gold (DE3)
Assay: ThT kinetic assay of Aβ42 aggregation (unseeded)
Format: biochemical
Details: 2 μM Aβ42; 5× drug:protein concentration
Excerpt: The recombinant Aβ(M1-42) peptide ([…]-SNKGAIIGLMVGGVVIA [SEQ ID NO: 1]), here called Aβ42, was expressed in the E. coli BL21 Gold (DE3) strain (Stratagene, Calif., U.S.A.) and purified as described previously with slight modifications. Briefly, the purification procedure involved sonication of E. coli cells, dissolution of inclusion bodies in 8 M urea, and ion exchange in batch mode on diethylaminoethyl cellulose resin and lyophylization. The lyophilized fractions were further purified using Superdex 75 HR 26/60 column (GE Healthcare, Buckinghamshire, U.K.) and eluates were analyzed using SDS-PAGE for the presence of the desired protein product. The fractions containing the recombinant protein were combined, frozen using liquid nitrogen, and lyophilized again.
Except for Netoglitazone, which was custom synthesised by GVK BIO, all small molecules were purchased with a purity greater than 99%. Small molecules were first solubilized in 100% DMSO to a concentration of 5 mM, and then diluted in the peptide solution to reach a final DMSO concentration of maximum 1-3%. We verified that the addition of DMSO in the reaction mixture has no effect on Aβ42 aggregation.
Solutions of monomeric peptides were prepared by dissolving the lyophilized Aβ42 peptide in 6 M GuHCl. Monomeric forms were purified from potential oligomeric species and salt using a Superdex 75 10/300 GL column (GE Healthcare) at a flowrate of 0.5 mL/min, and were eluted in 20 mM sodium phosphate buffer, pH 8 supplemented with 200 μM EDTA and 0.02% NaN3. The centre of the peak was collected, and the peptide concentration was determined from the absorbance of the integrated peak area using ε280=1490 L mol^−1 cm^−1. The obtained monomer was diluted with buffer to the desired concentration and supplemented with 20 μM Thioflavin T (ThT) from a 1 mM stock. All samples were prepared in low binding Eppendorf tubes on ice using careful pipetting to avoid introduction of air bubbles. Each sample was then pipetted into multiple wells of a 96-well half-area, low-binding, clear bottom and PEG coating plate (Corning 3881), 80 μL per well. Aβ42 kinetics have been performed in the absence or the presence of Netoglitazone, Mitoglitazone, Rosiglotazone, Rivoglitazone, Pioglitazone, Ciglitazone, Englitazone, Darglitazone, Troglitazone and Balaglitazone.
The time evolution of the total fibril mass concentration is described as a function only of the initial conditions and the rate constants of the system by the integrated rate law given by Eq. (54) in Cohen et al., J Chem Phys 135, 065106, 2011.
These are related to the rate of formation of new aggregates through primary pathways λ=√{square root over (2k+knm(0)^n^c)} and through secondary pathways κ=√{square root over (2k+k2m(0)^n^2^+1)}, where the initial concentration of soluble monomers is denoted by m(0), nc and n2 describe the dependencies of the primary and secondary pathways on the monomer concentration (nc=n2=2 for Aβ42), and kn, k+ and k2 are the rate constants of the primary nucleation, elongation and secondary nucleation, respectively (Cohen et al., Proc Natl Acad Sci USA, 110(24), 9758-63, 2013).
Inhibitors can interfere with the aggregation process by inhibiting one or more of the individual microscopic steps.

T1 sequence (P05067 671-713): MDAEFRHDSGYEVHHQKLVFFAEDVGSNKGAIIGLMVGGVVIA

Row | SMILES | Delay of Aβ42 aggregation
1 | COc1ccc2nc(COc3ccc(CC4SC(=O)NC4=O)cc3)n(C)c2c1 (centres unmarked) [Rivoglitazone] | little to no delay of Aβ42 aggregation was observed
2 | Cn1c(COc2ccc(CC3SC(=O)NC3=O)cc2)nc2ccccc2c1=O (centres unmarked) [Balaglitazone] | little to no delay of Aβ42 aggregation was observed
3 | O=C1NC(=O)C(Cc2ccc3c(c2)CC[C@H](Cc2ccccc2)O3)S1 (some centres unmarked) [Englitazone] | significantly delayed aggregation
4 | Cc1oc(-c2ccccc2)nc1CCC(=O)c1ccc(CC2SC(=O)NC2=O)cc1 (centres unmarked) [Darglitazone] | observed to delay Aβ42 aggregation
5 | CCc1ccc(C(=O)COc2ccc(CC3SC(=O)NC3=O)cc2)nc1 (centres unmarked) [Mitoglitazone] | little to no delay of Aβ42 aggregation was observed

Source: patent US20210145801A1, “THERAPY FOR PROTEIN MISFOLDING DISEASE” (WREN THERAPEUTICS LIMITED, priority 2018, published 2021)
